This assay concerns P388 leukemia ip, CD2F1 mice, survival T/C. In words: NCI In Vivo Anticancer Drug Screen. Data for tumor model P388 Leukemia (intraperitoneal) in CD2F1 (CDF1) mice. Conditions: endpoint: median survival time, higher = longer survival. Put shortly:
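Mice carrying the transplanted tumor received test compound or vehicle. Survival was recorded in each group, and the value is the treated-group measurement divided by that of the vehicle-treated control group.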

Where [1] appears, read: dose: 25.0 mg/kg/injection, schedule: Q01DX009 (ip), vehicle: Klucel (hydroxypropylcellulose) (HPC).
The mark [2] stands for this setting: dose: 100.0 mg/kg/injection, schedule: Q01DX009 (ip), vehicle: Klucel (hydroxypropylcellulose) (HPC).
[3] abbreviates: dose: 50.0 mg/kg/injection, schedule: Q01DX005 (ip), vehicle: saline with Tween-80.
Setting [4] is: dose: 100.0 mg/kg/injection, schedule: Q01DX005 (ip), vehicle: saline with Tween-80.
Where [5] appears, read: dose: 200.0 mg/kg/injection, schedule: Q01DX005 (ip), vehicle: saline with Tween-80.
The mark [6] stands for this setting: dose: 50.0 mg/kg/injection, schedule: Q01DX005 (ip), vehicle: Klucel (hydroxypropylcellulose) (HPC).
The mark [7] stands for this setting: dose: 100.0 mg/kg/injection, schedule: Q01DX005 (ip), vehicle: Klucel (hydroxypropylcellulose) (HPC).
[8] abbreviates: dose: 200.0 mg/kg/injection, schedule: Q01DX005 (ip), vehicle: Klucel (hydroxypropylcellulose) (HPC).
Where [9] appears, read: dose: 12.5 mg/kg/injection, schedule: Q01DX009 (ip), vehicle: Klucel (hydroxypropylcellulose) (HPC).
[10] abbreviates: dose: 50.0 mg/kg/injection, schedule: Q01DX009 (ip), vehicle: Klucel (hydroxypropylcellulose) (HPC).
[11] abbreviates: dose: 25.0 mg/kg/injection, schedule: Q01DX009 (ip), vehicle: saline with Tween-80.
Where [12] appears, read: dose: 50.0 mg/kg/injection, schedule: Q01DX009 (ip), vehicle: saline with Tween-80.
Where [13] appears, read: dose: 50.0 mg/kg/injection, schedule: Q01DX009 (ip), vehicle: saline.

Each structure is given as a SMILES string. “And” between values parts separate entries of the source, which are not always exact repeats. Equal entries are not always repeated. Inconclusive results and toxic doses are left out.

Take `NC(=S)c1cccc(/C=N/Nc2ccccc2)n1`: the T/C (dose: 100.0 mg/kg/injection, schedule: Q04DX003 (ip), vehicle: Klucel (hydroxypropylcellulose) (HPC)) was 101 % of control; the T/C (dose: 200.0 mg/kg/injection, schedule: Q04DX003 (ip), vehicle: Klucel (hydroxypropylcellulose) (HPC)) was 99 % of control; the T/C (dose: 400.0 mg/kg/injection, schedule: Q04DX003 (ip), vehicle: Klucel (hydroxypropylcellulose) (HPC)) was 97 % of control.

`Cc1cc(C)c(CCl)c(C)c1CCl`: the T/C under setting [1] is 106 % of control and the T/C under setting [2] is 100 % of control.

Consider `O=C1CCCOCCCOCCCOCCCOCCCOCCC1`, for which the T/C is, setting by setting: under setting [3], 103 % of control; under setting [4], 100 % of control; under setting [5], 100 % of control.

With `O=C1C=CC2(C=C1)N=C(c1ccccc1)C=C2c1ccccc1`, the T/C is 101 % of control under setting [3], 97 % of control under setting [4] and 93 % of control under setting [5].

As for `C#CC1(O)CC(c2ccccc2)N(C)C(c2ccccc2)C1` (centres undefined), the T/C is, setting by setting: (dose: 12.5 mg/kg/injection, schedule: Q01DX005 (ip), vehicle: saline with Tween-80) 93 % of control; (dose: 25.0 mg/kg/injection, schedule: Q01DX005 (ip), vehicle: saline with Tween-80) 98 % of control; under setting [3], 98 % of control and 87 % of control.

`CCOC(=O)c1cnc(SC)n(-c2ccc(Cl)cc2)c1=O`: the T/C reads like this: under setting [6], 100 % of control; under setting [7], 100 % of control; under setting [8], 108 % of control.

In the case of `CC(C)(C)OC(=O)NC(Cc1cnc[nH]1)C(=O)O` (centres undefined), the T/C was 90 % of control under setting [6], 99 % of control under setting [7] and 98 % of control under setting [8].

`CC1C(O)CCC2=CC(=O)C3(C4(CO)CO4)OC3C21C` (centres undefined): the T/C runs as follows: (dose: 15.0 mg/kg/injection, schedule: Q01DX005 (ip), vehicle: saline) 102 % of control; (dose: 30.0 mg/kg/injection, schedule: Q01DX005 (ip), vehicle: saline) 91 % of control; (dose: 60.0 mg/kg/injection, schedule: Q01DX005 (ip), vehicle: saline) 108 % of control; (dose: 62.5 mg/kg/injection, schedule: Q01DX005 (ip), vehicle: saline) 103 % of control; (dose: 120.0 mg/kg/injection, schedule: Q01DX005 (ip), vehicle: saline) 98 % of control; (dose: 125.0 mg/kg/injection, schedule: Q01DX005 (ip), vehicle: saline) 110 % of control. Also, under “dose: 250.0 mg/kg/injection, schedule: Q01DX005 (ip), vehicle: saline”, the T/C was 114 % of control.

As to `CC(=O)c1cc([N+](=O)[O-])c(N)s1`, the T/C is, setting by setting: under setting [9], 111 % of control; under setting [1], 111 % of control; under setting [10], 95 % of control; under setting [2], 107 % of control.

As to `CC(=O)c1sc(SSc2sc(C(C)=O)c(C)c2[N+](=O)[O-])c([N+](=O)[O-])c1C`, the T/C is 91 % of control (dose: 100.0 mg/kg/injection, schedule: Q04DX002 (ip), vehicle: Klucel (hydroxypropylcellulose) (HPC)); 89 % of control (dose: 200.0 mg/kg/injection, schedule: Q04DX002 (ip), vehicle: Klucel (hydroxypropylcellulose) (HPC)); 86 % of control (dose: 400.0 mg/kg/injection, schedule: Q04DX002 (ip), vehicle: Klucel (hydroxypropylcellulose) (HPC)).

Take `O=C(O)C1C2c3ccccc3C(c3ccccc32)C1C(=O)NCC1CC1` (centres undefined): the T/C is, setting by setting: (dose: 60.0 mg/kg/injection, schedule: Q01DX005 (ip), vehicle: Klucel (hydroxypropylcellulose) (HPC)) 109 % of control; (dose: 120.0 mg/kg/injection, schedule: Q01DX005 (ip), vehicle: Klucel (hydroxypropylcellulose) (HPC)) 110 % of control.

Turning to `CC(C)N1C(C)c2ccccc2OS1=O` (centres undefined), the T/C is 99 % of control under setting [10] and 108 % of control under setting [2].

`CCCCCCCCCCCCCCCCCC(=O)[Se][Se]C(=O)CCCCCCCCCCCCCCCCC`: the T/C (dose: 50.0 mg/kg/injection, schedule: Q01DX009 (ip), vehicle: saline + Tween-80 + alcohol) was 99 % of control; the T/C (dose: 100.0 mg/kg/injection, schedule: Q01DX009 (ip), vehicle: saline + Tween-80 + alcohol) was 104 % of control; the T/C (dose: 200.0 mg/kg/injection, schedule: Q01DX009 (ip), vehicle: saline + Tween-80 + alcohol) was 104 % of control.

`Cc1ccc2c(c1)C1(SC(C)C(=O)N1c1ccc(Br)cc1)C(=O)N2` (centres undefined): the T/C was 94 % of control (dose: 60.0 mg/kg/injection, schedule: Q01DX005 (ip), vehicle: saline with Tween-80); 96 % of control (dose: 120.0 mg/kg/injection, schedule: Q01DX005 (ip), vehicle: saline with Tween-80); 97 % of control (dose: 240.0 mg/kg/injection, schedule: Q01DX005 (ip), vehicle: saline with Tween-80).

For `O=C(/C=C/c1ccccc1)N1CCCCC1`, the T/C is, setting by setting: (dose: 100.0 mg/kg/injection, schedule: Q01DX009 (ip), vehicle: saline with Tween-80) 90 % of control; (dose: 200.0 mg/kg/injection, schedule: Q01DX009 (ip), vehicle: saline with Tween-80) 95 % of control; (dose: 400.0 mg/kg/injection, schedule: Q01DX009 (ip), vehicle: saline with Tween-80) 95 % of control.

Take `C=C(CC(=O)Nc1nc(C)c(C(=O)OC)s1)C(=O)O`: the T/C was 107 % of control (dose: 12.5 mg/kg/injection, schedule: Q01DX009 (ip), vehicle: saline with Tween-80); 100 % of control under setting [11]; 105 % of control under setting [12]; 99 % of control under setting [13]; 96 % of control (dose: 200.0 mg/kg/injection, schedule: Q01DX009 (ip), vehicle: saline).

With `CCOC(=O)C(=C=[N-])[n+]1ccc(C)cc1`, the T/C was 90 % of control (dose: 6.25 mg/kg/injection, schedule: Q01DX009 (ip), vehicle: saline sonified); 90 % of control (dose: 12.5 mg/kg/injection, schedule: Q01DX009 (ip), vehicle: saline sonified); 90 % of control (dose: 25.0 mg/kg/injection, schedule: Q01DX009 (ip), vehicle: saline sonified).

As to `C=C(OP(=O)(OC)OC)Sc1ccccc1C`, the T/C (dose: 0.04 mg/kg/injection, schedule: Q01DX005 (ip), vehicle: Klucel (hydroxypropylcellulose) (HPC)) was 105 % of control; the T/C (dose: 0.09 mg/kg/injection, schedule: Q01DX005 (ip), vehicle: Klucel (hydroxypropylcellulose) (HPC)) was 100 % of control; the T/C (dose: 0.18 mg/kg/injection, schedule: Q01DX005 (ip), vehicle: Klucel (hydroxypropylcellulose) (HPC)) was 106 % of control; the T/C (dose: 0.37 mg/kg/injection, schedule: Q01DX005 (ip), vehicle: Klucel (hydroxypropylcellulose) (HPC)) was 92 % of control; the T/C (dose: 0.75 mg/kg/injection, schedule: Q01DX005 (ip), vehicle: Klucel (hydroxypropylcellulose) (HPC)) is 100 % of control; the T/C (dose: 1.5 mg/kg/injection, schedule: Q01DX005 (ip), vehicle: Klucel (hydroxypropylcellulose) (HPC)) was 96 % of control. The T/C under setting [9] is 100 % of control and 97 % of control; the T/C under setting [1] is 102 % of control and 116 % of control; the T/C under setting [10] is 111 % of control and 121 % of control; the T/C under setting [2] is 105 % of control and 92 % of control.

In the case of `CC1CN=C(c2ccc(NC(=O)NCCCNC(=O)Nc3ccc(C4=NCC(C)N4)cc3)cc2)N1` (centres undefined), the T/C under setting [6] is 153 % of control and 158 % of control.

With `CCN(CC)CCNc1cccc2oc3ccc(OS(=O)(=O)c4ccc(C)cc4)cc3c(=O)c12`, the T/C was 97 % of control under setting [3], 100 % of control under setting [4] and 102 % of control under setting [5].

Regarding `NC(=S)N/N=C/c1cc(-c2cccc(N)c2)ccn1`, the T/C was 121 % of control (dose: 6.25 mg/kg/injection, schedule: Q01DX009 (ip), vehicle: saline); 109 % of control (dose: 9.4 mg/kg/injection, schedule: Q04DX003 (ip), vehicle: saline); 122 % of control (dose: 18.8 mg/kg/injection, schedule: Q04DX003 (ip), vehicle: saline); 119 % of control under setting [11]; 150 % of control (dose: 25.0 mg/kg/injection, schedule: Q01DX009 (ip), vehicle: saline); 122 % of control under setting [12]. The T/C reads like this: under setting [13], 154 % of control; (dose: 75.0 mg/kg/injection, schedule: Q01DX009 (ip), vehicle: saline with Tween-80) 111 % of control and 122 % of control; (dose: 75.0 mg/kg/injection, schedule: Q01DX009 (ip), vehicle: saline) 158 % of control; (dose: 150.0 mg/kg/injection, schedule: Q04DX003 (ip), vehicle: saline) 123 % of control.

The values are drawn from PubChem BioAssay AID330 (DTP/NCI, 2004).
